Measured values reported in ChEMBL document CHEMBL1649448, “Atorvastatin is a promising partner for antimalarial drugs in treatment of Plasmodium falciparum malaria” (Antimicrob Agents Chemother, 2009).

Test system: Plasmodium falciparum
Assay: Antimalarial activity against Plasmodium falciparum IMT Vol assessed as incorporation of [3H]hypoxanthine after 48 hrs by scintillation counter
Format: functional, organism-based

Q: How did the IC50 turn out when `CC(C)c1c(C(=O)Nc2ccccc2)c(-c2ccccc2)c(-c2ccc(F)cc2)n1CC[C@@H](O)C[C@@H](O)CC(=O)O` [ATORVASTATIN] was run?
A: 2.5 µM

Test system: Plasmodium falciparum
Assay: Antimalarial activity against Plasmodium falciparum 3D7 harboring Ppcrt I371R mutant gene and Pfnhe-1 ms4760 microsatellite mutant assessed as incorporation of [3H]hypoxanthine after 48 hrs by scintillation counter
Format: functional, organism-based

Q: For `CC(C)c1c(C(=O)Nc2ccccc2)c(-c2ccccc2)c(-c2ccc(F)cc2)n1CC[C@@H](O)C[C@@H](O)CC(=O)O` [ATORVASTATIN], which IC50 is on record?
A: 9 µM

Test system: Plasmodium falciparum
Assay: Antimalarial activity against Plasmodium falciparum W2 harboring Ppcrt M74I, N75E, K76T, A220S, Q271E, N326S and I356T mutant gene, Pmdr1 N86Y mutant gene and Pfmrp H191Y and S437A mutant gene assessed as incorporation of [[3H]hypoxanthine after 48 hrs by scintillation counter
Format: functional, organism-based

Q: For `CC(C)c1c(C(=O)Nc2ccccc2)c(-c2ccccc2)c(-c2ccc(F)cc2)n1CC[C@@H](O)C[C@@H](O)CC(=O)O` [ATORVASTATIN], which IC50 is on record?
A: 5.9 µM

Test system: Plasmodium falciparum
Assay: Antimalarial activity against Plasmodium falciparum D6 harboring Ppcrt I371R mutant gene assessed as incorporation of [3H]hypoxanthine after 48 hrs by scintillation counter
Format: functional, organism-based

Q: How did the IC50 turn out when `CC(C)c1c(C(=O)Nc2ccccc2)c(-c2ccccc2)c(-c2ccc(F)cc2)n1CC[C@@H](O)C[C@@H](O)CC(=O)O` [ATORVASTATIN] was run?
A: 5.9 µM

Test system: Plasmodium falciparum
Assay: Antimalarial activity against Plasmodium falciparum FCM29 harboring Ppcrt M74I, N75E, K76T, A220S, Q271E, N326S and I356T mutant gene, Pmdr1 N86Y mutant gene and Pfmrp H191Y and S437A mutant gene assessed as incorporation of [3H]hypoxanthine after 48 hrs by scintillation counter
Format: functional, organism-based

Q: Which IC50 does the source give for `CC(C)c1c(C(=O)Nc2ccccc2)c(-c2ccccc2)c(-c2ccc(F)cc2)n1CC[C@@H](O)C[C@@H](O)CC(=O)O` [ATORVASTATIN] here?
A: 5.9 µM

Test system: Plasmodium falciparum
Assay: Antimalarial activity against Plasmodium falciparum FCR3 harboring Ppcrt M74I, N75E, K76T, A220S, Q271E, N326S and I356T mutant gene, Pmdr1 N86Y mutant gene and Pfmrp H191Y and S437A mutant gene assessed as incorporation of [3H]hypoxanthine after 48 hrs by scintillation counter
Format: functional, organism-based

Q: `CC(C)c1c(C(=O)Nc2ccccc2)c(-c2ccccc2)c(-c2ccc(F)cc2)n1CC[C@@H](O)C[C@@H](O)CC(=O)O` [ATORVASTATIN] was tested. Which IC50 did it give?
A: 8.7 µM

Test system: Plasmodium falciparum
Assay: Antimalarial activity against Plasmodium falciparum PA harboring Ppcrt M74I, N75E, K76T, A220S, Q271E, N326S and I356T mutant gene, Pmdr1 N86Y mutant gene and Pfmrp H191Y and S437A mutant gene assessed as incorporation of [3H]hypoxanthine after 48 hrs by scintillation counter
Format: functional, organism-based

Q: With `CC(C)c1c(C(=O)Nc2ccccc2)c(-c2ccccc2)c(-c2ccc(F)cc2)n1CC[C@@H](O)C[C@@H](O)CC(=O)O` [ATORVASTATIN] as the molecule, how does the IC50 read?
A: 8.2 µM

Test system: Plasmodium falciparum
Assay: Antimalarial activity against Plasmodium falciparum HB3 harboring Ppcrt I371R mutant gene and Pfmdr1 Y184F mutant gene assessed as incorporation of [3H]hypoxanthine after 48 hrs by scintillation counter
Format: functional, organism-based

Q: With `CC(C)c1c(C(=O)Nc2ccccc2)c(-c2ccccc2)c(-c2ccc(F)cc2)n1CC[C@@H](O)C[C@@H](O)CC(=O)O` [ATORVASTATIN] as the molecule, how does the IC50 read?
A: 10.8 µM

Test system: Plasmodium falciparum
Assay: Antimalarial activity against Plasmodium falciparum 106/1 harboring Ppcrt M74I, N75E, K76T, A220S, Q271E, N326S and I356T mutant gene, Pmdr1 N86Y mutant gene and Pfmrp H191Y and S437A mutant gene assessed as incorporation of [3H]hypoxanthine after 48 hrs by scintillation counter
Format: functional, organism-based

Q: For `CC(C)c1c(C(=O)Nc2ccccc2)c(-c2ccccc2)c(-c2ccc(F)cc2)n1CC[C@@H](O)C[C@@H](O)CC(=O)O` [ATORVASTATIN], which IC50 is on record?
A: 8 µM

Test system: Plasmodium falciparum
Assay: Antimalarial activity against Plasmodium falciparum IMT Bres harboring Ppcrt M74I, N75E, K76T, A220S, Q271E, N326S and I356T mutant gene, Pmdr1 N86Y mutant gene and Pfmrp H191Y and S437A mutant gene assessed as incorporation of [3H]hypoxanthine after 48 hrs by scintillation counter
Format: functional, organism-based

Q: `CC(C)c1c(C(=O)Nc2ccccc2)c(-c2ccccc2)c(-c2ccc(F)cc2)n1CC[C@@H](O)C[C@@H](O)CC(=O)O` [ATORVASTATIN] was tested. Which IC50 did it give?
A: 5.8 µM

Test system: Plasmodium falciparum
Assay: Antimalarial activity against Plasmodium falciparum IMT Guy harboring Ppcrt K76T, A220S, N326D and I371R mutant gene, Pmdr1 T184FN, 1042D and D1246Y, mutant gene and Pfmrp H191Y and S437A mutant gene and Pfnhe-1 ms4760 microsatellite mutant assessed as incorporation of [3H]hypoxanthine after 48 hrs by scintillation counter
Format: functional, organism-based

Q: For `CC(C)c1c(C(=O)Nc2ccccc2)c(-c2ccccc2)c(-c2ccc(F)cc2)n1CC[C@@H](O)C[C@@H](O)CC(=O)O` [ATORVASTATIN], which IC50 is on record?
A: 7.1 µM

Test system: Plasmodium falciparum
Assay: Antimalarial activity against Plasmodium falciparum IMT 31 harboring Ppcrt I371R mutant gene assessed as incorporation of [3H]hypoxanthine after 48 hrs by scintillation counter
Format: functional, organism-based

Q: Which IC50 does the source give for `CC(C)c1c(C(=O)Nc2ccccc2)c(-c2ccccc2)c(-c2ccc(F)cc2)n1CC[C@@H](O)C[C@@H](O)CC(=O)O` [ATORVASTATIN] here?
A: 5.9 µM

Test system: Plasmodium falciparum
Assay: Antimalarial activity against Plasmodium falciparum IMT 8425 harboring Ppcrt I371R mutant gene and Pfnhe-1 ms4760 microsatellite mutant assessed as incorporation of [3H]hypoxanthine after 48 hrs by scintillation counter
Format: functional, organism-based

Q: `CC(C)c1c(C(=O)Nc2ccccc2)c(-c2ccccc2)c(-c2ccc(F)cc2)n1CC[C@@H](O)C[C@@H](O)CC(=O)O` [ATORVASTATIN] was tested. Which IC50 did it give?
A: 9.7 µM

Test system: Plasmodium falciparum
Assay: Antimalarial activity against Plasmodium falciparum IMT 9881 harboring Ppcrt I371R mutant gene assessed as incorporation of [3H]hypoxanthine after 48 hrs by scintillation counter
Format: functional, organism-based

Q: Which IC50 does the source give for `CC(C)c1c(C(=O)Nc2ccccc2)c(-c2ccccc2)c(-c2ccc(F)cc2)n1CC[C@@H](O)C[C@@H](O)CC(=O)O` [ATORVASTATIN] here?
A: 7.3 µM

Test system: Plasmodium falciparum
Assay: Antimalarial activity against Plasmodium falciparum IMT 10336 harboring Pfcrt Q271E mutant gene and Ppcrt I371R mutant gene assessed as incorporation of [3H]hypoxanthine after 48 hrs by scintillation counter
Format: functional, organism-based

Q: Which IC50 does the source give for `CC(C)c1c(C(=O)Nc2ccccc2)c(-c2ccccc2)c(-c2ccc(F)cc2)n1CC[C@@H](O)C[C@@H](O)CC(=O)O` [ATORVASTATIN] here?
A: 6.9 µM

Test system: Plasmodium falciparum
Assay: Antimalarial activity against Plasmodium falciparum IMT 10500 harboring Pfcrt Q271E mutant gene and Ppcrt I371R mutant gene and Pfnhe-1 ms4760 microsatellite mutant assessed as incorporation of [3H]hypoxanthine after 48 hrs by scintillation counter
Format: functional, organism-based

Q: Which IC50 does the source give for `CC(C)c1c(C(=O)Nc2ccccc2)c(-c2ccccc2)c(-c2ccc(F)cc2)n1CC[C@@H](O)C[C@@H](O)CC(=O)O` [ATORVASTATIN] here?
A: 6.7 µM

Test system: Plasmodium falciparum
Assay: Antimalarial activity against Plasmodium falciparum IMT 16332 harboring Ppcrt M74I, N75E, K76T, A220S, Q271E mutant gene, Pmdr1 N86Y mutant gene assessed as incorporation of [3H]hypoxanthine after 48 hrs by scintillation counter
Format: functional, organism-based

Q: `CC(C)c1c(C(=O)Nc2ccccc2)c(-c2ccccc2)c(-c2ccc(F)cc2)n1CC[C@@H](O)C[C@@H](O)CC(=O)O` [ATORVASTATIN] was tested. Which IC50 did it give?
A: 6 µM

Test system: Plasmodium falciparum
Assay: Antimalarial activity against Plasmodium falciparum IMT K14 harboring Ppcrt M74I, N75E, K76T, A220S, Q271E, N326S mutant gene, Pmdr1 Y184F, S1034C, N1042D, D1246Y mutant gene and Pfmrp H191Y and S437A mutant gene assessed as incorporation of [3H]hypoxanthine after 48 hrs by scintillation counter
Format: functional, organism-based

Q: Which IC50 does the source give for `CC(C)c1c(C(=O)Nc2ccccc2)c(-c2ccccc2)c(-c2ccc(F)cc2)n1CC[C@@H](O)C[C@@H](O)CC(=O)O` [ATORVASTATIN] here?
A: 6.9 µM

Test system: Plasmodium falciparum
Assay: Antimalarial activity against Plasmodium falciparum IMT K2 harboring Ppcrt M74I, N75E, K76T, A220S, Q271E, N326S mutant gene, Pmdr1 S1034C, N1042D mutant gene and Pfmrp H191Y and S437A mutant gene assessed as incorporation of [3H]hypoxanthine after 48 hrs by scintillation counter
Format: functional, organism-based

Q: Which IC50 does the source give for `CC(C)c1c(C(=O)Nc2ccccc2)c(-c2ccccc2)c(-c2ccc(F)cc2)n1CC[C@@H](O)C[C@@H](O)CC(=O)O` [ATORVASTATIN] here?
A: 8.6 µM

Test system: Plasmodium falciparum
Assay: Antimalarial activity against Plasmodium falciparum IMT K4 harboring Ppcrt M74I, N75E, K76T, A220S, Q271E, N326S mutant gene, Pmdr1 S1034C, N1042D mutant gene and Pfmrp H191Y and S437A mutant gene assessed as incorporation of [3H]hypoxanthine after 48 hrs by scintillation counter
Format: functional, organism-based

Q: Which IC50 does the source give for `CC(C)c1c(C(=O)Nc2ccccc2)c(-c2ccccc2)c(-c2ccc(F)cc2)n1CC[C@@H](O)C[C@@H](O)CC(=O)O` [ATORVASTATIN] here?
A: 6.9 µM

Test system: Plasmodium falciparum
Assay: Antimalarial activity against Plasmodium falciparum IMT L1 harboring Ppcrt M74I, N75E, K76T, A220S, Q271E mutant gene, Pmdr1 N86Y mutant gene and Pfmrp H191Y and S437A mutant gene assessed as incorporation of [3H]hypoxanthine after 48 hrs by scintillation counter
Format: functional, organism-based

Q: Which IC50 does the source give for `CC(C)c1c(C(=O)Nc2ccccc2)c(-c2ccccc2)c(-c2ccc(F)cc2)n1CC[C@@H](O)C[C@@H](O)CC(=O)O` [ATORVASTATIN] here?
A: 8.2 µM

Test system: Plasmodium falciparum
Assay: Antimalarial activity against Plasmodium falciparum IMT Vol harboring Ppcrt M74I, N75E, K76T, A220S, Q271E, N326S mutant gene, Pmdr1 N86Y mutant gene and Pfmrp H191Y and S437A mutant gene assessed as incorporation of [3H] hypoxanthine after 48 hrs by scintillation counter
Format: functional, organism-based

Q: `CC(C)c1c(C(=O)Nc2ccccc2)c(-c2ccccc2)c(-c2ccc(F)cc2)n1CC[C@@H](O)C[C@@H](O)CC(=O)O` [ATORVASTATIN] was tested. Which IC50 did it give?
A: 7.6 µM
